Test results taken from patent US20070093520A1, “Method of treatment of diarrhea-predominant irritable bowel syndrome in a subject” (priority 2005, published 2007).

Tested on: diarrhea-predominant IBS subjects
Assay: 3007 Study: open-label 52-week safety study, adverse events and withdrawals
[1] = Cilansetron 2 mg/Cilansetron 2 mg

## Cc1nccn1C[C@H]1CCc2c(c3cccc4c3n2CCC4)C1=O [cilansetron, (R)-(−)-4,5,6,8,9,10-hexahydro-10-[(2-methyl-1H-imidazol-1-yl)methyl]-11H-pyrido-[3,2,1-jk]-carbazol-11-one]
C/C group
  TEAE: Vulvovaginal Signs and Symptoms*: 1 (<1%) n (%)
  TEAE: Wheezing: 1 (<1%) n (%)
[1]
  TEAE: Abdominal Discomfort: 1 (<1%) n (%)
  TEAE: Abdominal Distension: 9 (4%) n (%)
  TEAE: Abdominal Pain Aggravated: 4 (2%) n (%)
  TEAE: Abdominal Pain Lower: 4 (2%) n (%)
  TEAE: Abdominal Pain NOS: 14 (5%) n (%)
  TEAE: Abdominal Pain Upper: 7 (3%) n (%)
  TEAE: Abdominal Rebound Tenderness: 1 (<1%) n (%)
  TEAE: Abdominal Tenderness: 9 (4%) n (%)
  TEAE: Abnormal Reflexes: 1 (<1%) n (%)
  TEAE: Alanine Aminotransferase Increased: 8 (3%) n (%)
  TEAE: Anal and Rectal Disorders NEC: 0 n (%)
  TEAE: Anal and Rectal Pains: 0 n (%)
  TEAE: Anal and Rectal Signs and Symptoms: 1 (<1%) n (%)
  TEAE: Animal Bite: 0 n (%)
  TEAE: Appendicitis: 1 (<1%) n (%)
  TEAE: Arthralgia: 10 (4%) n (%)
  TEAE: Arthritis NOS: 3 (1%) n (%)
  TEAE: Arthritis NOS Aggravated: 1 (<1%) n (%)
  TEAE: Arthropathies NEC: 5 (2%) n (%)
  TEAE: Arthropod Bite: 1 (<1%) n (%)
  TEAE: Arthropod Sting: 0 n (%)
  TEAE: Aspartate Aminotransferase Increased: 4 (2%) n (%)
  TEAE: Back Injury NOS: 3 (1%) n (%)
  TEAE: Back Pain: 12 (5%) n (%)
  TEAE: Back Pain Aggravated: 2 (<1%) n (%)
  TEAE: Bacteria Identification and Serology (Excl Mycobacteria): 1 (<1%) n (%)
  TEAE: Bilirubin Urine: 1 (<1%) n (%)
  TEAE: Bladder Infection NOS: 0 n (%)
  TEAE: Blood Alkaline Phosphatase NOS Increased: 2 (<1%) n (%)
  TEAE: Blood Bilirubin Increased: 2 (<1%) n (%)
  TEAE: Blood Cholesterol Increased: 11 (4%) n (%)
  TEAE: Blood Creatine Phosphokinase Increased: 19 (7%) n (%)
  TEAE: Blood Creatine Phosphokinase Mb Increased: 1 (<1%) n (%)
  TEAE: Blood Creatinine Increased: 1 (<1%) n (%)
  TEAE: Blood Glucose Increased: 2 (<1%) n (%)
  TEAE: Blood Potassium Increased: 1 (<1%) n (%)
  TEAE: Blood Pressure Increased: 3 (1%) n (%)
  TEAE: Blood Sodium Increased: 1 (<1%) n (%)
  TEAE: Blood Triglycerides Increased: 6 (2%) n (%)
  TEAE: Blood Uric Acid Increased: 2 (<1%) n (%)
  TEAE: Blood Urine Present: 6 (2%) n (%)
  TEAE: Blood in Stool: 4 (2%) n (%)
  TEAE: Bone Density Decreased: 0 n (%)
  TEAE: Bone Disorder NOS: 1 (<1%) n (%)
  TEAE: Bone Disorders NEC: 1 (<1%) n (%)
  TEAE: Bone Injury: 1 (<1%) n (%)
  TEAE: Bone Spur: 0 n (%)
  TEAE: Bronchitis Acute NOS: 2 (<1%) n (%)
  TEAE: Bronchitis NOS: 18 (7%) n (%)
  TEAE: Bronchopneumonia NOS: 0 n (%)
  TEAE: Bunion: 2 (<1%) n (%)
  TEAE: Bursal Disorders: 3 (1%) n (%)
  TEAE: Bursitis: 1 (<1%) n (%)
  TEAE: Candida Infections: 2 (<1%) n (%)
  TEAE: Candidal Infection NOS: 1 (<1%) n (%)
  TEAE: Carbohydrate Tolerance Analyses (Incl Diabetes): 2 (<1%) n (%)
  TEAE: Cardiac Auscultatory Investigations: 1 (<1%) n (%)
  TEAE: Cardiac Murmur NOS: 1 (<1%) n (%)
  TEAE: Carotid Bruit: 0 n (%)
  TEAE: Carpal Tunnel Syndrome: 2 (<1%) n (%)
  TEAE: Cartilage Disorder NOS: 1 (<1%) n (%)
  TEAE: Cartilage Disorders: 1 (<1%) n (%)
  TEAE: Cellulitis: 0 n (%)
  TEAE: Cervical Spasm: 1 (<1%) n (%)
  TEAE: Change in Bowel Habit NOS: 0 n (%)
  TEAE: Chapped Lips: 0 n (%)
  TEAE: Chest Wall Pain: 0 n (%)
  TEAE: Cholesterol Analyses: 11 (4%) n (%)
  TEAE: Colitis (Excl Infective): 0 n (%)
  TEAE: Colitis Ischaemic: 0 n (%)
  TEAE: Colonic Polyp: 1 (<1%) n (%)
  TEAE: Connective Tissue Disorders (Excl Le): 2 (<1%) n (%)
  TEAE: Constipation: 66 (26%) n (%)
  TEAE: Cystitis NOS: 1 (<1%) n (%)
  TEAE: Dental Disorders NEC: 1 (<1%) n (%)
  TEAE: Dental Infections - Pathogen Class Unspecified: 9 (4%) n (%)
  TEAE: Dental Pain and Sensation Disorders: 2 (<1%) n (%)
  TEAE: Diaphragmatic Hernias: 2 (<1%) n (%)
  TEAE: Diarrhoea (Excl Infective): 24 (9%) n (%)
  TEAE: Diarrhoea Aggravated: 3 (1%) n (%)
  TEAE: Diarrhoea Haemorrhagic: 0 n (%)
  TEAE: Diarrhoea NOS: 22 (9%) n (%)
  TEAE: Disturbances in Consciousness NEC: 3 (1%) n (%)
  TEAE: Diverticulitis NOS: 1 (<1%) n (%)
  TEAE: Diverticulum Inflammations: 1 (<1%) n (%)
  TEAE: Dizziness: 4 (2%) n (%)
  TEAE: Dry Mouth: 1 (<1%) n (%)
  TEAE: Dysarthria: 0 n (%)
  TEAE: Dyskinesias and Movement Disorders NEC: 0 n (%)
  TEAE: Dyspepsia: 6 (2%) n (%)
  TEAE: Dyspepsia Aggravated: 2 (<1%) n (%)
  TEAE: Dyspeptic Signs and Symptoms: 10 (4%) n (%)
  TEAE: ECG Investigations: 1 (<1%) n (%)
  TEAE: Ear Infection NOS: 2 (<1%) n (%)
  TEAE: Ear Infections: 2 (<1%) n (%)
  TEAE: Electrocardiogram Qrs Complex Abnormal: 1 (<1%) n (%)
  TEAE: Electrocardiogram T Wave Inversion: 0 n (%)
  TEAE: Enteritis: 0 n (%)
  TEAE: Epigastric Discomfort: 0 n (%)
  TEAE: Eructation: 2 (<1%) n (%)
  TEAE: Eye Injuries NEC: 1 (<1%) n (%)
  TEAE: Faecal Abnormality NOS: 1 (<1%) n (%)
  TEAE: Faecal Impaction: 0 n (%)
  TEAE: Faecal Incontinence: 1 (<1%) n (%)
  TEAE: Faecal Occult Blood Positive: 23 (9%) n (%)
  TEAE: Faeces Abnormal: 2 (<1%) n (%)
  TEAE: Faeces Hard: 1 (<1%) n (%)
  TEAE: Fibromyalgia: 1 (<1%) n (%)
  TEAE: Flatulence: 16 (6%) n (%)
  TEAE: Flatulence, Bloating and Distension: 23 (9%) n (%)
  TEAE: Food Poisoning NOS: 1 (<1%) n (%)
  TEAE: Foot Fracture: 1 (<1%) n (%)
  TEAE: Fractures and Dislocations NEC: 1 (<1%) n (%)
  TEAE: Frequent Bowel Movements: 1 (<1%) n (%)
  TEAE: Fungal Infection NOS: 2 (<1%) n (%)
  TEAE: Fungal Infections NEC: 4 (2%) n (%)
  TEAE: Gamma-Glutamyltransferase Increased: 5 (2%) n (%)
  TEAE: Gastric Irritation: 1 (<1%) n (%)
  TEAE: Gastritis (Excl Infective): 3 (1%) n (%)
  TEAE: Gastritis NOS: 3 (1%) n (%)
  TEAE: Gastroenteritis NOS: 4 (2%) n (%)
  TEAE: Gastroenteritis Viral NOS: 5 (2%) n (%)
  TEAE: Gastrointestinal Atonic and Hypomotility Disorders NEC: 70 (27%) n (%)
  TEAE: Gastrointestinal Disorders: 134 (52%) n (%)
  TEAE: Gastrointestinal Disorders NEC: 1 (<1%) n (%)
  TEAE: Gastrointestinal Dyskinetic Disorders: 2 (<1%) n (%)
  TEAE: Gastrointestinal Histopathology Procedures: 25 (10%) n (%)
  TEAE: Gastrointestinal Infections - Pathogen Class Unspecified: 4 (2%) n (%)
  TEAE: Gastrointestinal Inflammatory Disorders NEC: 1 (<1%) n (%)
  TEAE: Gastrointestinal Motility Disorder NOS: 2 (<1%) n (%)
  TEAE: Gastrointestinal Mucosal Dystrophies and Secretion Disorders: 1 (<1%) n (%)
  TEAE: Gastrointestinal Signs and Symptoms NEC: 2 (<1%) n (%)
  TEAE: Gastrointestinal Spastic and Hypermotility Disorders: 5 (2%) n (%)
  TEAE: Gastrointestinal and Abdominal Pains (Excl Oral and Throat): 36 (14%) n (%)
  TEAE: Gingival Abscess: 2 (<1%) n (%)
  TEAE: Gingival Atrophy: 1 (<1%) n (%)
  TEAE: Gingival Disorders NEC: 1 (<1%) n (%)
  TEAE: Gingival Pain: 1 (<1%) n (%)
  TEAE: Gingival Pains: 1 (<1%) n (%)
  TEAE: Gingivitis: 0 n (%)
  TEAE: Gingivitis Infection NOS: 1 (<1%) n (%)
  TEAE: Glucose Urine Present: 1 (<1%) n (%)
  TEAE: Groin Pain: 1 (<1%) n (%)
  TEAE: Haematocrit Decreased: 1 (<1%) n (%)
  TEAE: Haemoglobin Decreased: 1 (<1%) n (%)
  TEAE: Haemorrhoidal Haemorrhage: 2 (<1%) n (%)
  TEAE: Haemorrhoids: 4 (2%) n (%)
  TEAE: Haemorrhoids Aggravated: 0 n (%)
  TEAE: Haemorrhoids and Gastrointestinal Varices (Excl Oesophageal): 6 (2%) n (%)
  TEAE: Halitosis: 1 (<1%) n (%)
  TEAE: Headache NOS: 19 (7%) n (%)
  TEAE: Headache NOS Aggravated: 3 (1%) n (%)
  TEAE: Headaches NEC: 25 (10%) n (%)
  TEAE: Heart Rate Increased: 1 (<1%) n (%)
  TEAE: Heart Rate and Pulse Investigations: 1 (<1%) n (%)
  TEAE: Heat Exhaustion: 1 (<1%) n (%)
  TEAE: Heat Injuries (Excl Thermal Burns): 1 (<1%) n (%)
  TEAE: Helicobacter Pylori Antibody Positive: 1 (<1%) n (%)
  TEAE: Herpes Simplex: 2 (<1%) n (%)
  TEAE: Herpes Simplex Aggravated: 1 (<1%) n (%)
  TEAE: Herpes Viral Infections: 3 (1%) n (%)
  TEAE: Herpes Zoster: 0 n (%)
  TEAE: Hiatus Hernia: 2 (<1%) n (%)
  TEAE: Hyperreflexia: 1 (<1%) n (%)
  TEAE: Hypoaesthesia: 1 (<1%) n (%)
  TEAE: Infected Varicose Vein: 1 (<1%) n (%)
  TEAE: Infections NEC: 3 (1%) n (%)
